# System: T1, Debia-MDR
# T1 construct: gene DebiaDRAFT_04514; full-length, N-terminal His6-tag (pET100, tag kept), E. coli Rosetta 2 (DE3); monomer 38,272 Da predicted, approx. 41 kDa with tag; native about 170 kDa, homotetramer; forward primer […]; (N-terminus MAKMMKT by translation)
# Test: spectrophotometric NADH consumption at […] nm
# Format: biochemical, Desulfococcus biacutus
# Conditions: reduction direction, NADH co-substrate (0.1 mM in the general assay); 50 uM ZnCl2, 3 mM DTT, anoxic; general assay 25 mM MOPS pH 7.2, 30 °C
smiles,measurement,value
CC(C)=O [acetone],Km,40 µM

# Reference: article PMC5123277, “Cloning, functional expression and characterization of a bifunctional 3-hydroxybutanal dehydrogenase /reductase involved in acetone metabolism by Desulfococcus biacutus” (BMC Microbiology, 2016)
